Data published in patent publication US10597388B2, “Pyridazinone herbicides” (FMC CORPORATION, priority 2014, dated 2020).

Tests used:
Experiment in all cases: Test C greenhouse herbicide test, pre- and postemergence
Type in all cases: in vivo
[1] = system: wheat (winter wheat, Triticum aestivum)
Method in brief: (§1)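 Each species was treated both before emergence, in a loam–sand soil mix, and after emergence, as 1- to 4-leaf seedlings in peat-based potting medium. Plants stayed in the greenhouse 13 to 15 d, then were scored from 0 (no effect) to 100 (complete control) relative to controls.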

[2] = system: waterhemp (common waterhemp, Amaranthus rudis)
Method in brief: as §1

[3] = system: ryegrass, Italian (Italian ryegrass, Lolium multiflorum)
Method in brief: as §1

[4] = system: pigweed (Amaranthus retroflexus)
Method in brief: as §1

[5] = system: ragweed (common ragweed, Ambrosia elatior)
Method in brief: as §1

[6] = system: morningglory (Ipomoea coccinea)
Method in brief: as §1

soybean (Glycine max) = system: soybean (Glycine max)
Method in brief: as §1

[7] = system: johnsongrass (Sorghum halepense)
Method in brief: as §1

[8] = system: lambsquarters (Chenopodium album)
Method in brief: as §1

[9] = system: galium (catchweed bedstraw, Galium aparine)
Method in brief: as §1

[10] = system: barnyardgrass (Echinochloa crus-galli)
Method in brief: as §1

[11] = system: velvetleaf (Abutilon theophrasti)
Method in brief: as §1

[12] = system: blackgrass (Alopecurus myosuroides)
Method in brief: as §1

corn (Zea mays) = system: corn (Zea mays)
Method in brief: as §1

[13] = system: nutsedge, yellow (yellow nutsedge, Cyperus esculentus)
Method in brief: as §1

[14] = system: foxtail, giant (giant foxtail, Setaria faberii)
Method in brief: as §1

[15] = Postemergence, 31 g ai/ha, scale 0 to 100 (0 no effect, 100 complete control)
[16] = Postemergence, 62 g ai/ha, 0 to 100 scale (0 no effect, 100 complete control)
[17] = Postemergence, 250 g ai/ha, scale 0 to 100, 0 is no effect, 100 is complete control
[18] = postemergence, 125 g ai/ha, scale 0 to 100, 0 no effect, 100 complete control
[19] = Preemergence, 31 g ai/ha, scale 0 to 100, 0 is no effect, 100 is complete control
[20] = Preemergence, 62 g ai/ha, scale 0 to 100, 0 is no effect, 100 is complete control
[21] = Preemergence, 125 g ai/ha, scale 0 to 100, 0 is no effect, 100 is complete control
[22] = Preemergence, 250 g ai/ha, scale 0 to 100 (0 no effect, 100 complete control)

## CC(=O)Oc1c(C)nn(C)c(=O)c1-c1c([N+](=O)[O-])ccc2ccccc12 [Compound 164]
[1]; [15]
  Plant response rating, Wheat: 5
[1]; [16]
  Wheat plant response rating: 5
[1]; [17]
  Plant response rating, Wheat: 20
[1]; [18]
  Wheat plant response rating: 10
[2]; [15]
  Plant response rating, Waterhemp: 60
[2]; [16]
  Waterhemp plant response rating: 70
[2]; [17]
  Plant response rating, Waterhemp: 75
[2]; [18]
  Waterhemp plant response rating: 70
[3]; [15]
  Plant response rating, Ryegrass, Italian: 50
[3]; [16]
  Ryegrass, Italian plant response rating: 60
[3]; [17]
  Plant response rating, Ryegrass, Italian: 85
[3]; [18]
  Ryegrass, Italian plant response rating: 80
[4]; [15]
  Plant response rating, Pigweed: 70
[4]; [16]
  Pigweed plant response rating: 80
[4]; [17]
  Plant response rating, Pigweed: 85
[4]; [18]
  Pigweed plant response rating: 85
[5]; [15]
  Plant response rating, Ragweed: 70
[5]; [16]
  Ragweed plant response rating: 80
[5]; [17]
  Plant response rating, Ragweed: 90
[5]; [18]
  Ragweed plant response rating: 85
[6]; [15]
  Plant response rating, Morningglory: 80
[6]; [16]
  Morningglory plant response rating: 85
[6]; [17]
  Plant response rating, Morningglory: 90
[6]; [18]
  Morningglory plant response rating: 90
Soybean (Glycine max); [15]
  Plant response rating, Soybean: 0
Soybean (Glycine max); [16]
  Soybean plant response rating: 0
Soybean (Glycine max); [17]
  Plant response rating, Soybean: 5
Soybean (Glycine max); [18]
  Soybean plant response rating: 10
[7]; [15]
  Plant response rating, Johnsongrass: 5
[7]; [16]
  Johnsongrass plant response rating: 5
[7]; [17]
  Plant response rating, Johnsongrass: 10
[7]; [18]
  Johnsongrass plant response rating: 5
[8]; [15]
  Plant response rating, Lambsquarters: 70
[8]; [16]
  Lambsquarters plant response rating: 85
[8]; [17]
  Plant response rating, Lambsquarters: 98
[8]; [18]
  Lambsquarters plant response rating: 85
[9]; [15]
  Plant response rating, Galium: 90
[9]; [16]
  Galium plant response rating: 95
[9]; [17]
  Plant response rating, Galium: 100
[9]; [18]
  Galium plant response rating: 100
[10]; [15]
  Plant response rating, Barnyardgrass: 10
[10]; [16]
  Barnyardgrass plant response rating: 25
[10]; [17]
  Plant response rating, Barnyardgrass: 35
[10]; [18]
  Barnyardgrass plant response rating: 30
[11]; [15]
  Plant response rating, Velvetleaf: 25
[11]; [16]
  Velvetleaf plant response rating: 60
[11]; [17]
  Plant response rating, Velvetleaf: 70
[11]; [18]
  Velvetleaf plant response rating: 25
[12]; [15]
  Plant response rating, Blackgrass: 5
[12]; [16]
  Blackgrass plant response rating: 15
[12]; [17]
  Plant response rating, Blackgrass: 45
[12]; [18]
  Blackgrass plant response rating: 40
Corn (Zea mays); [15]
  Plant response rating, Corn: 0
Corn (Zea mays); [16]
  Corn plant response rating: 0
Corn (Zea mays); [17]
  Plant response rating, Corn: 5
Corn (Zea mays); [18]
  Corn plant response rating: 5
[13]; [15]
  Plant response rating, Nutsedge, Yellow: 20
[13]; [16]
  Nutsedge, Yellow plant response rating: 20
[13]; [17]
  Plant response rating, Nutsedge, Yellow: 40
[13]; [18]
  Nutsedge, Yellow plant response rating: 25
[14]; [15]
  Plant response rating, Foxtail, Giant: 5
[14]; [16]
  Foxtail, Giant plant response rating: 10
[14]; [17]
  Plant response rating, Foxtail, Giant: 30
[14]; [18]
  Foxtail, Giant plant response rating: 15

## CSCC(=O)Oc1c(C)nn(C)c(=O)c1-c1cccc2ccccc12 [Compound 171]
[1]; [15]
  Plant response rating, Wheat: 0
[1]; [16]
  Wheat plant response rating: 15
[1]; [17]
  Plant response rating, Wheat: 20
[1]; [19]
  Plant response rating, Wheat: 0
[1]; [20]
  Plant response rating, Wheat: 5
[1]; [21]
  Plant response rating, Wheat: 45
[1]; [18]
  Wheat plant response rating: 30
[2]; [15]
  Plant response rating, Waterhemp: 75
[2]; [16]
  Waterhemp plant response rating: 95
[2]; [17]
  Plant response rating, Waterhemp: 100
[2]; [19]
  Plant response rating, Waterhemp: 85
[2]; [20]
  Plant response rating, Waterhemp: 95
[2]; [21]
  Plant response rating, Waterhemp: 100
[2]; [18]
  Waterhemp plant response rating: 98
[3]; [15]
  Plant response rating, Ryegrass, Italian: 90
[3]; [16]
  Ryegrass, Italian plant response rating: 95
[3]; [17]
  Plant response rating, Ryegrass, Italian: 95
[3]; [19]
  Plant response rating, Ryegrass, Italian: 90
[3]; [20]
  Plant response rating, Ryegrass, Italian: 95
[3]; [21]
  Plant response rating, Ryegrass, Italian: 95
[3]; [18]
  Ryegrass, Italian plant response rating: 95
[4]; [15]
  Plant response rating, Pigweed: 60
[4]; [16]
  Pigweed plant response rating: 80
[4]; [17]
  Plant response rating, Pigweed: 100
[4]; [19]
  Plant response rating, Pigweed: 70
[4]; [20]
  Plant response rating, Pigweed: 60
[4]; [21]
  Plant response rating, Pigweed: 100
[4]; [22]
  Pigweed plant response rating: 100
[4]; [18]
  Pigweed plant response rating: 90
[5]; [15]
  Plant response rating, Ragweed: 75
[5]; [16]
  Ragweed plant response rating: 100
[5]; [17]
  Plant response rating, Ragweed: 100
[5]; [19]
  Plant response rating, Ragweed: 65
[5]; [20]
  Plant response rating, Ragweed: 80
[5]; [21]
  Plant response rating, Ragweed: 95
[5]; [18]
  Ragweed plant response rating: 100
[6]; [15]
  Plant response rating, Morningglory: 90
[6]; [16]
  Morningglory plant response rating: 100
[6]; [17]
  Plant response rating, Morningglory: 100
[6]; [19]
  Plant response rating, Morningglory: 85
[6]; [20]
  Plant response rating, Morningglory: 90
[6]; [21]
  Plant response rating, Morningglory: 95
[6]; [22]
  Morningglory plant response rating: 98
[6]; [18]
  Morningglory plant response rating: 100
Soybean (Glycine max); [15]
  Plant response rating, Soybean: 10
Soybean (Glycine max); [16]
  Soybean plant response rating: 30
Soybean (Glycine max); [17]
  Plant response rating, Soybean: 50
Soybean (Glycine max); [20]
  Plant response rating, Soybean: 0
Soybean (Glycine max); [21]
  Plant response rating, Soybean: 55
Soybean (Glycine max); [18]
  Soybean plant response rating: 60
[7]; [15]
  Plant response rating, Johnsongrass: 5
[7]; [16]
  Johnsongrass plant response rating: 5
[7]; [17]
  Plant response rating, Johnsongrass: 20
[7]; [19]
  Plant response rating, Johnsongrass: 0
[7]; [20]
  Plant response rating, Johnsongrass: 5
[7]; [21]
  Plant response rating, Johnsongrass: 10
[7]; [22]
  Johnsongrass plant response rating: 35
[7]; [18]
  Johnsongrass plant response rating: 15
[8]; [15]
  Plant response rating, Lambsquarters: 90
[8]; [16]
  Lambsquarters plant response rating: 95
[8]; [17]
  Plant response rating, Lambsquarters: 100
[8]; [19]
  Plant response rating, Lambsquarters: 98
[8]; [20]
  Plant response rating, Lambsquarters: 95
[8]; [21]
  Plant response rating, Lambsquarters: 95
[8]; [22]
  Lambsquarters plant response rating: 100
[8]; [18]
  Lambsquarters plant response rating: 98
[9]; [15]
  Plant response rating, Galium: 95
[9]; [16]
  Galium plant response rating: 95
[9]; [17]
  Plant response rating, Galium: 95
[9]; [19]
  Plant response rating, Galium: 90
[9]; [20]
  Plant response rating, Galium: 90
[9]; [21]
  Plant response rating, Galium: 98
[9]; [22]
  Galium plant response rating: 100
[9]; [18]
  Galium plant response rating: 95
[10]; [15]
  Plant response rating, Barnyardgrass: 15
[10]; [16]
  Barnyardgrass plant response rating: 35
[10]; [17]
  Plant response rating, Barnyardgrass: 60
[10]; [19]
  Plant response rating, Barnyardgrass: 5
[10]; [20]
  Plant response rating, Barnyardgrass: 35
[10]; [21]
  Plant response rating, Barnyardgrass: 75
[10]; [22]
  Barnyardgrass plant response rating: 95
[10]; [18]
  Barnyardgrass plant response rating: 40
[11]; [15]
  Plant response rating, Velvetleaf: 35
[11]; [16]
  Velvetleaf plant response rating: 70
[11]; [17]
  Plant response rating, Velvetleaf: 100
[11]; [19]
  Plant response rating, Velvetleaf: 70
[11]; [20]
  Plant response rating, Velvetleaf: 90
[11]; [21]
  Plant response rating, Velvetleaf: 95
[11]; [18]
  Velvetleaf plant response rating: 100
[12]; [15]
  Plant response rating, Blackgrass: 5
[12]; [16]
  Blackgrass plant response rating: 30
[12]; [17]
  Plant response rating, Blackgrass: 55
[12]; [19]
  Plant response rating, Blackgrass: 30
[12]; [20]
  Plant response rating, Blackgrass: 40
[12]; [21]
  Plant response rating, Blackgrass: 45
[12]; [22]
  Blackgrass plant response rating: 90
[12]; [18]
  Blackgrass plant response rating: 40
Corn (Zea mays); [15]
  Plant response rating, Corn: 0
Corn (Zea mays); [16]
  Corn plant response rating: 0
Corn (Zea mays); [17]
  Plant response rating, Corn: 20
Corn (Zea mays); [19]
  Plant response rating, Corn: 0
Corn (Zea mays); [20]
  Plant response rating, Corn: 0
Corn (Zea mays); [21]
  Plant response rating, Corn: 0
Corn (Zea mays); [22]
  Corn plant response rating: 40
Corn (Zea mays); [18]
  Corn plant response rating: 10
[13]; [15]
  Plant response rating, Nutsedge, Yellow: 50
[13]; [16]
  Nutsedge, Yellow plant response rating: 75
[13]; [19]
  Plant response rating, Nutsedge, Yellow: 45
[13]; [20]
  Plant response rating, Nutsedge, Yellow: 55
[13]; [21]
  Plant response rating, Nutsedge, Yellow: 70
[13]; [22]
  Nutsedge, Yellow plant response rating: 90
[13]; [18]
  Nutsedge, Yellow plant response rating: 75
[14]; [15]
  Plant response rating, Foxtail, Giant: 10
[14]; [16]
  Foxtail, Giant plant response rating: 25
[14]; [17]
  Plant response rating, Foxtail, Giant: 75
[14]; [18]
  Foxtail, Giant plant response rating: 50
